Our source for the IC50 values is patent publication US20120129833A1, “CYCLIC KETOENOLS FOR THERAPY” (BAYER PHARMA AKTIENGESELLSCHAFT, priority 2010, published 2012).

The target in assay [1] is T1, recombinant human ACC1 (acetyl-CoA carboxylase 1) (Homo sapiens, UniProt Q13085).
T1 construct: NM_198834, amino acids 39—end; FLAG (C); made in house; host or cells: baculovirus-transfected insect cells (Hi5)
The experiment in a line: Human ACC1 enzyme assay (HTRF ADP detection).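 Note: ADP by-product quantified by competitive HTRF immunoassay with europium cryptate anti-ADP antibody and d2-labelled ADP, read after 1 h binding at 22 °C, enzyme near 2.5 ng/µl.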 The format is biochemical. Conditions: 50 μM ATP, 20 μM acetyl-CoA, 15 min pre-incubation, 20 min at 22° C.; read-out: ACC 1 IC50.
Method: The basic principle of the assay is the measurement of adenosine diphosphate (ADP), which is formed as a by-product, by means of an HTRF®-based competitive immunoassay (HTRF=Homogeneous Time Resolved Fluorescence).
(§1) The amount of complex of d2-labelled ADP and europium cryptate-labelled anti-ADP antibody was then determined by measuring the resonance energy transfer of europium cryptate to d2.

For assay [2], the target named is T2, ACC2 (acetyl-CoA carboxylase 2) (Homo sapiens, UniProt O00763).
T2 construct: catalogue no; 50201, amino acids 39—end, expressed in baculovirus-transfected Sf9 insect cells; His (C); purchased BPS Bioscience (San Diego, Calif.) 50201; host or cells: baculovirus-transfected Sf9 insect cells
Nature of the assay: Human ACC2 enzyme assay (HTRF ADP detection). The format is biochemical. The settings on record: 20 μM acetyl-CoA, 15 min pre-incubation, 20 min at 22° C.; read-out: ACC 2 IC50. A general note: Time-resolved FRET reads energy transfer from a long-lived donor to a nearby acceptor.
Method: The inhibitory activity of the substances of this invention with regard to acetyl-CoA carboxylase 2 (ACC2) was measured using the ACC2 assay described in the paragraphs below. The basic principle of the assay is the measurement of adenosine diphosphate (ADP), which is formed as a by-product, by means of an HTRF®-based competitive immunoassay (HTRF=Homogeneous Time Resolved Fluorescence).
as §1

T2 sequence (O00763 39-2458 limits assumed): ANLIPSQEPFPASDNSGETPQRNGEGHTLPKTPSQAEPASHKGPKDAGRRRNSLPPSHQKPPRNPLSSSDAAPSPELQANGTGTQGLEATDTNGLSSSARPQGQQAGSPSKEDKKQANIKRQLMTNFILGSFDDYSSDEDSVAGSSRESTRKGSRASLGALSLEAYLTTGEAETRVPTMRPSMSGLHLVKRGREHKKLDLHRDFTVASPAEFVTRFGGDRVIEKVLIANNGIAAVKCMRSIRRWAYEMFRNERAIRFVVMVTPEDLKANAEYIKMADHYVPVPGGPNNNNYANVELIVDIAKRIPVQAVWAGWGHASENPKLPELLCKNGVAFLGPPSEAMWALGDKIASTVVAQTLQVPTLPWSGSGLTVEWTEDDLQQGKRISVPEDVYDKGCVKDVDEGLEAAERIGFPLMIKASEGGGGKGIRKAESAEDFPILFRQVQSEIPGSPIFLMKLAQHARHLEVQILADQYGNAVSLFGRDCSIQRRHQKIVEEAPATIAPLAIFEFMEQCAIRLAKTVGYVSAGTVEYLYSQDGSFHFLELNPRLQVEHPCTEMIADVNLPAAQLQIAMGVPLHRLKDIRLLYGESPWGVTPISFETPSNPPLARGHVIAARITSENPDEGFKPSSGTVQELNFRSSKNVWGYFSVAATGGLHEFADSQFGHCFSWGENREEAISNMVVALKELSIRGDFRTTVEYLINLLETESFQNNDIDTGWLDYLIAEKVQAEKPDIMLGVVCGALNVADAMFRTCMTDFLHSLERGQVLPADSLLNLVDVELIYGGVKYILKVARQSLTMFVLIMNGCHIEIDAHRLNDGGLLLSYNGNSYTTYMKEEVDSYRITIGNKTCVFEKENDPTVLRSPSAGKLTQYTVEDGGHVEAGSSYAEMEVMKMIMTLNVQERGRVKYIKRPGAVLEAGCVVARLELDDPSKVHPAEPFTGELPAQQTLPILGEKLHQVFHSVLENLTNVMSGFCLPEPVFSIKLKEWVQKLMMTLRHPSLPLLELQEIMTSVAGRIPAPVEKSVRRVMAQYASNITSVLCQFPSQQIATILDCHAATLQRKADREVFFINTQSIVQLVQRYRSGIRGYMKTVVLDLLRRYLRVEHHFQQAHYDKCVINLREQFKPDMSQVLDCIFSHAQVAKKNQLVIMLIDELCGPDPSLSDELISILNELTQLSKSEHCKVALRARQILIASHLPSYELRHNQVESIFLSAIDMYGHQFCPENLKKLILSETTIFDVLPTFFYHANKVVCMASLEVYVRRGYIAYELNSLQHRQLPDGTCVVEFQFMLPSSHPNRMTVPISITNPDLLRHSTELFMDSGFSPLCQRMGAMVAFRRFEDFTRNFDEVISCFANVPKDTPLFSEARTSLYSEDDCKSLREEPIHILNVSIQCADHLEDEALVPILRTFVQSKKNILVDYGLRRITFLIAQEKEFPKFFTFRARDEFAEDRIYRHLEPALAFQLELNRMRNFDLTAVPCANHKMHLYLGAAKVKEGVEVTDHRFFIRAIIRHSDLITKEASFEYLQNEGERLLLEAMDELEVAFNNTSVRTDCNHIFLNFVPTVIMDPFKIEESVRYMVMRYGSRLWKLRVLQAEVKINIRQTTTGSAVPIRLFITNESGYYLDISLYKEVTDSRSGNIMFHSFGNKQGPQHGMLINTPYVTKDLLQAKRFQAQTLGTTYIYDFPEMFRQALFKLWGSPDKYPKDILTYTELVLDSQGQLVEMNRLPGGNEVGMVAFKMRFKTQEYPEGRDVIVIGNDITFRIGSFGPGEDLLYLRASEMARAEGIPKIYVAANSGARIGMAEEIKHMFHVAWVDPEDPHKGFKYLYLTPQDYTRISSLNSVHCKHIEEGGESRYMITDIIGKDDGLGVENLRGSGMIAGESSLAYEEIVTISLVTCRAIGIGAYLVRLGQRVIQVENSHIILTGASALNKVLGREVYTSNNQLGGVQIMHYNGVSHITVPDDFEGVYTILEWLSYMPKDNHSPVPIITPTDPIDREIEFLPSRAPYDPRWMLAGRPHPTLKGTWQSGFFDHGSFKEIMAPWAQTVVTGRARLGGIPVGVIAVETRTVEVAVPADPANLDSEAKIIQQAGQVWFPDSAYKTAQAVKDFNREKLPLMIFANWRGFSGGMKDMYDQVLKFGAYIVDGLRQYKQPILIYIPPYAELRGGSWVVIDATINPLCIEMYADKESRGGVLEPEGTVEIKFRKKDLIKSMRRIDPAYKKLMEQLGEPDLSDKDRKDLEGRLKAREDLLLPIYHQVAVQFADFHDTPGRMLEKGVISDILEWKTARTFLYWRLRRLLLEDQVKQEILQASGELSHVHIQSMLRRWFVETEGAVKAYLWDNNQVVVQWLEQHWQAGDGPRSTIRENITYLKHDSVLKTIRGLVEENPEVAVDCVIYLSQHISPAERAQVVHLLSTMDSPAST

Broadly, the IC50 is the point on the concentration scale where inhibition reaches its midpoint. `COCCC1CCCC2(C1)NC(=O)C(c1c(C)ccc(-c3ccc(Cl)cc3)c1C)=C2O` (stereo not shown) [Example 1-55, 3-(4′-chloro-2,4-dimethylbiphenyl-3-yl)-4-hydroxy-7-(2-methoxyethyl)-1-azaspiro[4.5]dec-3-en-2-one]: the IC50 in assay [1] turned out to be 918 nM; in assay [2], 465 nM.
On the same counts, the results for `COCC1CCC2(CC1)NC(=O)C(c1cc(-c3ccc(Cl)cc3)ccc1C)=C2O` (stereo not shown) [Example 1-56, 3-(4′-chloro-4-methylbiphenyl-3-yl)-4-hydroxy-8-(methoxymethyl)-1-azaspiro[4.5]dec-3-en-2-one] are 430 nM and 320 nM.
With `COCCC1CCC2(CC1)NC(=O)C(c1c(C)ccc(-c3ccc(Cl)cc3)c1C)=C2O` (stereo not shown) [Example 1-57, 3-(4′-chloro-2,4-dimethylbiphenyl-3-yl)-4-hydroxy-8-(2-methoxyethyl)-1-azaspiro[4.5]dec-3-en-2-one], the values for the IC50 in assay [1] and in assay [2] were 790 nM and 220 nM, respectively.
On to `O=C1NC2(CCC3(CC2)OCCCO3)C(O)=C1c1cc(-c2ccc(Cl)cc2)ccc1Cl` [Example 1-58, 3-(4,4′-dichlorobiphenyl-3-yl)-4-hydroxy-9,13-dioxa-1-azadispiro[4.2.5.2]pentadec-3-en-2-one], for which the results for the IC50 in assay [1] and in assay [2] were 362 nM and 11500 nM, respectively.
In the same order, the values of `Cc1ccc(-c2ccc(Cl)cc2)cc1C1=C(O)C2(CCC3(CC2)OCCCO3)NC1=O` [Example 1-59, 3-(4′-chloro-4-methylbiphenyl-3-yl)-4-hydroxy-9,13-dioxa-1-azadispiro[4.2.5.2]pentadec-3-en-2-one] are 427 nM and 5200 nM.
In the same order, the values of `Cc1ccc(-c2ccc(Cl)cc2)cc1C1=C(O)C2(CCC3(CC2)OCCO3)NC1=O` [Example 1-60, 11-(4′-chloro-4-methylbiphenyl-3-yl)-12-hydroxy-1,4-dioxa-9-azadispiro[4.2.4.2]tetradec-11-en-10-one] are 237 nM and 2330 nM.
For the molecule `O=C1NC2(CCC3(CC2)OCCO3)C(O)=C1c1cc(-c2ccc(Cl)cc2)ccc1Cl` [Example 1-61, 11-(4,4′-dichlorobiphenyl-3-yl)-12-hydroxy-1,4-dioxa-9-azadispiro[4.2.4.2]tetradec-11-en-10-one], the IC50 in assay [1] is 227 nM; in assay [2] it was 3910 nM.
`Cc1ccc(-c2ccc(Cl)cc2)cc1C1=C(O)C2(CCC3(CC2)OCC(C)O3)NC1=O` (stereo not shown) [Example 1-63, 11-(4′-chloro-4-methylbiphenyl-3-yl)-12-hydroxy-2-methyl-1,4-dioxa-9-azadispiro[4.2.4.2]tetradec-11-en-10-one]: the IC50 in assay [1] stood at 391 nM; in assay [2] it was 4220 nM.
As to `Cc1ccc(-c2ccc(Cl)cc2)cc1C1=C(O)C2(CCC3(CC2)OC(C)C(C)O3)NC1=O` (stereo not shown) [Example 1-64, 11-(4′-chloro-4-methylbiphenyl-3-yl)-12-hydroxy-2,3-dimethyl-1,4-dioxa-9-azadispiro[4.2.4.2]tetradec-11-en-10-one], the IC50 in assay [1] is 985 nM; in assay [2] it was 16400 nM.
In the same order, the values of `CC1(C)COC2(CCC3(CC2)NC(=O)C(c2cc(-c4ccc(Cl)cc4)ccc2Cl)=C3O)OC1` [Example 1-65, 3-(4,4′-dichlorobiphenyl-3-yl)-4-hydroxy-11,11-dimethyl-9,13-dioxa-1-azadispiro[4.2.5.2]pentadec-3-en-2-one] are 934 nM and 9470 nM.
On the same counts, the results for `Cc1ccc(-c2ccc(Cl)cc2)cc1C1=C(O)C2(CCC3(CC2)OCC(C)CO3)NC1=O` (stereo not shown) [Example 1-66, 3-(4′-chloro-4-methylbiphenyl-3-yl)-4-hydroxy-1′-methyl-9,13-dioxa-1-azadispiro[4.2.5.2]pentadec-3-en-2-one] are 409 nM and 1540 nM.
In the same order, the values of `Cc1ccc(-c2ccc(Cl)cc2)cc1C1=C(O)C2(CCC3(CC2)OCC(C)(C)CO3)NC1=O` [Example 1-67, 3-(4′-chloro-4-methylbiphenyl-3-yl)-4-hydroxy-11,11-dimethyl-9,13-dioxa-1-azadispiro[4.2.5.2]pentadec-3-en-2-one] are 668 nM and 1440 nM.
Regarding `CC1COC2(CCC3(CC2)NC(=O)C(c2cc(-c4ccc(Cl)cc4)ccc2Cl)=C3O)O1` (stereo not shown) [Example 1-68, 11-(4,4′-dichlorobiphenyl-3-yl)-12-hydroxy-2-methyl-1,4-dioxa-9-azadispiro[4.2.4.2]tetradec-11-en-10-one], the IC50 in assay [1] came to 489 nM; in assay [2], 4860 nM.
In the same order, the values of `CC1COC2(CCC3(CC2)NC(=O)C(c2cc(-c4ccc(Cl)cc4)ccc2Cl)=C3O)OC1` (stereo not shown) [Example 1-69, 3-(4,4′-dichlorobiphenyl-3-yl)-4-hydroxy-1′-methyl-9,13-dioxa-1-azadispiro[4.2.5.2]pentadec-3-en-2-one] are 647 nM and 11000 nM.
In the same order, the values of `Cc1ccc(-c2ccc(Cl)cc2)c(C)c1C1=C(O)C2(CCC3(CC2)OCCO3)NC1=O` [Example 1-70, 11-(4′-chloro-2,4-dimethylbiphenyl-3-yl)-12-hydroxy-1,4-dioxa-9-azadispiro[4.2.4.2]tetradec-11-en-10-one] are 675 nM and 1840 nM.
On the same counts, the results for `CC1OC2(CCC3(CC2)NC(=O)C(c2cc(-c4ccc(Cl)cc4)ccc2Cl)=C3O)OC1C` (stereo not shown) [Example 1-71, 11-(4,4′-dichlorobiphenyl-3-yl)-12-hydroxy-2,3-dimethyl-1,4-dioxa-9-azadispiro[4.2.4.2]tetradec-11-en-10-one] are 661 nM and > 20000 nM.
`COC1CCCC2(C1)NC(=O)C(c1c(C)ccc(-c3ccc(Cl)cc3)c1C)=C2O` (stereo not shown) [Example 1-72, 3-(4′-chloro-2,4-dimethylbiphenyl-3-yl)-4-hydroxy-7-methoxy-1-azaspiro[4.5]dec-3-en-2-one]: the IC50 in assay [1] was 1180 nM; in assay [2] it was 2340 nM.
Take `CCOC1CCCC2(C1)NC(=O)C(c1c(C)ccc(-c3ccc(Cl)cc3)c1C)=C2O` (stereo not shown) [Example 1-73, 3-(4′-chloro-2,4-dimethylbiphenyl-3-yl)-7-ethoxy-4-hydroxy-1-azaspiro[4.5]dec-3-en-2-one]: the IC50 in assay [1] turned out to be 912 nM; in assay [2] it was 4970 nM.
Consider `CCOC1CCC2(CC1)NC(=O)C(c1c(C)cc(C)c(-c3ccc(Cl)cc3)c1C)=C2O` (stereo not shown) [Example 1-75, 3-(4′-chloro-2,4,6-trimethylbiphenyl-3-yl)-8-ethoxy-4-hydroxy-1-azaspiro[4.5]dec-3-en-2-one], for which the IC50 in assay [1] was found to be 7970 nM; in assay [2], 376 nM.
In the case of `Cc1ccc(-c2ccc(Cl)cc2)cc1C1=C(O)[C@]2(CC[C@H](C)CC2)NC1=O` [Example 1-76, 3-(4′-chloro-4-methylbiphenyl-3-yl)-4-hydroxy-8-methyl-1-azaspiro[4.5]dec-3-en-2-one], the IC50 in assay [1] is 201 nM; in assay [2] it was 233 nM.
For `Cc1ccc(-c2ccc(Cl)cc2)cc1C1=C(O)C2(CCCCC2)NC1=O` [Example 1-77, 3-(4′-chloro-4-methylbiphenyl-3-yl)-4-hydroxy-1-azaspiro[4.5]dec-3-en-2-one], the IC50 was 327 nM in assay [1] and 860 nM in assay [2].
For the molecule `Cc1ccc(-c2ccc(Cl)cc2)cc1C1=C(O)C(C)(C(C)C)NC1=O` (stereo not shown) [Example 1-78, 3-(4′-chloro-4-methylbiphenyl-3-yl)-4-hydroxy-5-methyl-5-(propan-2-yl)-1,5-dihydro-2H-pyrrol-2-one], the IC50 in assay [1] is 795 nM; in assay [2] it was 1730 nM.
In the same order, the values of `CCOC1CCC2(CC1)NC(=O)C(c1cc(-c3cccc(Cl)c3)ccc1C)=C2O` (stereo not shown) [Example 1-79, 3-(3′-chloro-4-methylbiphenyl-3-yl)-8-ethoxy-4-hydroxy-1-azaspiro[4.5]dec-3-en-2-one] are 848 nM and > 20000 nM.
Turning to `COC1CCC2(CC1)NC(=O)C(c1cc(-c3cc(F)ccc3F)ccc1C)=C2O` (stereo not shown) [Example 1-80, 3-(2′,5′-difluoro-4-methylbiphenyl-3-yl)-4-hydroxy-8-methoxy-1-azaspiro[4.5]dec-3-en-2-one], the IC50 in assay [1] is 695 nM; in assay [2] it was > 20000 nM.
In the same order, the values of `Cc1ccc(-c2ccc(Cl)cc2)cc1C1=C(O)C2(CCCC(C)C2)NC1=O` (stereo not shown) [Example 1-82, 3-(4′-chloro-4-methylbiphenyl-3-yl)-4-hydroxy-7-methyl-1-azaspiro[4.5]dec-3-en-2-one] are 542 nM and 433 nM.
On to `CCCC1CCC2(CC1)NC(=O)C(c1cc(-c3ccc(Cl)cc3)ccc1C)=C2O` (stereo not shown) [Example 1-83, 3-(4′-chloro-4-methylbiphenyl-3-yl)-4-hydroxy-8-propyl-1-azaspiro[4.5]dec-3-en-2-one], for which the IC50 in assay [1] came to 459 nM; in assay [2], 349 nM.
On the same counts, the results for `Cc1ccc(-c2ccc(Cl)cc2)cc1C1=C(O)C2(CCCC2)NC1=O` [Example 1-85, 3-(4′-chloro-4-methylbiphenyl-3-yl)-4-hydroxy-1-azaspiro[4.4]non-3-en-2-one] are 340 nM and 4000 nM.
On the same counts, the results for `Cc1ccc(-c2ccc(Cl)cc2)cc1C1=C(O)C(C)(C2CC2)NC1=O` (stereo not shown) [Example 1-86, 3-(4′-chloro-4-methylbiphenyl-3-yl)-5-cyclopropyl-4-hydroxy-5-methyl-1,5-dihydro-2H-pyrrol-2-one] are 541 nM and 3300 nM.
In the same order, the values of `CC[C@]1(OC)CC[C@@]2(CC1)NC(=O)C(c1c(C)ccc(-c3ccc(Cl)cc3)c1C)=C2O` [Example 1-88, (5r,8r)-3-(4′-chloro-2,4-dimethylbiphenyl-3-yl)-8-ethyl-4-hydroxy-8-methoxy-1-azaspiro[4.5]dec-3-en-2-one] are 825 nM and 6900 nM.
